The text below walks through data of patent US10231954B2, “Neurodegenerative therapies” (LYTIX BIOPHARMA AS, priority 2014, dated 2019).

What all share (type): biochemical
Assay [1] has as its system AMPK. The experiment in a line: Kinase profiling AMPK. From the text:
(§1) Any value less that 25 is considered to be highly significant inhibition.

The target of assay [2] is CK1γ2 (Homo sapiens, UniProt P78368). The experiment in a line: Kinase profiling CK1γ2. To be noted: for remaining activity at 100 µM: read-out: residual kinase activity, CK1γ2.
Source text: as §1

Assay [3] deals with T1, GCK (Homo sapiens, UniProt Q12851).
T1 sequence (Q12851 1-820): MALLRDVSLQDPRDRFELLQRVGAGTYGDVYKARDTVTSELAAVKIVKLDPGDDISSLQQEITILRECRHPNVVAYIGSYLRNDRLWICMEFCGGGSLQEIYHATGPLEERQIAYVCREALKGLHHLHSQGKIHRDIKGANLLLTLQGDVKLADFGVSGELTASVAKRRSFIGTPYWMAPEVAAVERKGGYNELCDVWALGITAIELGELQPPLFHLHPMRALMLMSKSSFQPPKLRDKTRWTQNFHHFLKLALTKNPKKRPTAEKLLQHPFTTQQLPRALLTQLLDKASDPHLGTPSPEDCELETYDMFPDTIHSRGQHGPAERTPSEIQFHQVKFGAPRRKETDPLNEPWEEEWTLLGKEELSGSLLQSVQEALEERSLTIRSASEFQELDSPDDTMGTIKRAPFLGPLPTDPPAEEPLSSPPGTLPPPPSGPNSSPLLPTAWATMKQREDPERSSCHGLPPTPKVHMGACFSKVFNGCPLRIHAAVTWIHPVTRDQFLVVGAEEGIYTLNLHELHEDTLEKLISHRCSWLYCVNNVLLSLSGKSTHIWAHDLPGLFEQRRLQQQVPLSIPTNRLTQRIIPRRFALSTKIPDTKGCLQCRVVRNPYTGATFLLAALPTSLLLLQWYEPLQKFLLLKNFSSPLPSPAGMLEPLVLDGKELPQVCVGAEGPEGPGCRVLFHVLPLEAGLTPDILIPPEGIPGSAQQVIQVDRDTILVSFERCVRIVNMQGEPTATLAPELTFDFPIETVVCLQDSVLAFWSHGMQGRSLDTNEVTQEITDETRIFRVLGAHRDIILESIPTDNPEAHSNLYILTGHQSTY
The experiment in a line: Kinase profiling GCK. The settings on record: for remaining activity at 100 µM: read-out: residual kinase activity, GCK.
Source text: as §1

For assay [4], the target named is HIPK1 (Homo sapiens, UniProt Q86Z02). The experiment in a line: Kinase profiling HIPK1. The settings on record: for remaining activity at 100 µM: read-out: residual kinase activity, HIPK1.
Source text: as §1

Assay [5] has as its target PAK5 (Homo sapiens, UniProt Q9P286). The experiment in a line: Kinase profiling PAK5. The settings on record: for remaining activity at 100 µM: read-out: residual kinase activity, PAK5.
Source text: as §1

The target in assay [6] is T2, NEK2a (Homo sapiens, UniProt P51955).
T2 sequence (P51955 1-445): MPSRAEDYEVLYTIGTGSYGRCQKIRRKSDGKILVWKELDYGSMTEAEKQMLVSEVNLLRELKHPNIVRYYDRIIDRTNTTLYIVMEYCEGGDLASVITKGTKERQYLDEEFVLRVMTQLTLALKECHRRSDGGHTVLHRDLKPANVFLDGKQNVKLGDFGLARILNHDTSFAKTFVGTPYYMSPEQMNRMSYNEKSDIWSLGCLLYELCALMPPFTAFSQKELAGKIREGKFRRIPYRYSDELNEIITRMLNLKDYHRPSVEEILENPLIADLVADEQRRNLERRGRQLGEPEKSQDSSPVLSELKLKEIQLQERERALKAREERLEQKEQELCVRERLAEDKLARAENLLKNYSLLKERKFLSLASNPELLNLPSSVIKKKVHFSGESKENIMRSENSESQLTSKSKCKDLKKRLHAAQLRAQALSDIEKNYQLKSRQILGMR
The experiment in a line: Kinase profiling NEK2a. The settings on record: for remaining activity at 100 µM: read-out: residual kinase activity, NEK2a.
Source text: as §1

For assay [7], the target named is T3, EPH-B1 (Homo sapiens, UniProt P54762).
T3 sequence (P54762 18-984): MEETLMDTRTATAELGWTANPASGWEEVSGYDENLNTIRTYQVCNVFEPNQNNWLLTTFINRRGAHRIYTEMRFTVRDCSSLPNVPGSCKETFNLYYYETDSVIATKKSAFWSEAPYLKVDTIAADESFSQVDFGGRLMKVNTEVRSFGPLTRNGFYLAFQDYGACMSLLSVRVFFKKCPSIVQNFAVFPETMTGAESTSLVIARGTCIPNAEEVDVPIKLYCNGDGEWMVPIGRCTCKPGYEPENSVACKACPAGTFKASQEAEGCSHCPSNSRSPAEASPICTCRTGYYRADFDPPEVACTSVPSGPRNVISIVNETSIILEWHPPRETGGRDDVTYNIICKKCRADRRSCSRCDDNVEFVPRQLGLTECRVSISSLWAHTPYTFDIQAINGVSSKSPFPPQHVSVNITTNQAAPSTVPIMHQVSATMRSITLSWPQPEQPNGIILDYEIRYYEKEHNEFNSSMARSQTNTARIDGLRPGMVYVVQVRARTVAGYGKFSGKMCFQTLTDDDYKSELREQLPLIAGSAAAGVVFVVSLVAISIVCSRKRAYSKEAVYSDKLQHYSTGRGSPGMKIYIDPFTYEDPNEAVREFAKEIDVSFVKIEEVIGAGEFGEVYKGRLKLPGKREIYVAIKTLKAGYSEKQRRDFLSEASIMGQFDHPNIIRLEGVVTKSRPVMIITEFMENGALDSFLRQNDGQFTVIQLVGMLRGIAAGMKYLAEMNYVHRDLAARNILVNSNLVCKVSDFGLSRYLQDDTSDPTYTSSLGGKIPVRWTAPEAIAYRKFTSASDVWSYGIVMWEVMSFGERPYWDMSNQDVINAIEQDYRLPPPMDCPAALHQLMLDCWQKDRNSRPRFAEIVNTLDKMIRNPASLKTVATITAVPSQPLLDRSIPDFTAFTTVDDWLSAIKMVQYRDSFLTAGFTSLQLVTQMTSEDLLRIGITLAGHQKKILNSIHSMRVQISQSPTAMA
The experiment in a line: Kinase profiling EPH-B1. To be noted: for remaining activity at 100 µM: read-out: residual kinase activity, EPH-B1.
Source text: as §1

Assay [8] addresses MLK1 (Homo sapiens, UniProt P80192). The experiment in a line: Kinase profiling MLK1. The settings on record: for remaining activity at 100 µM: read-out: residual kinase activity, MLK1.
Source text: as §1

Assay [9] concerns the target TESK1 (Homo sapiens, UniProt Q15569). The experiment in a line: Kinase profiling TESK1. To be noted: for remaining activity at 100 µM: read-out: residual kinase activity, TESK1.
Source text: as §1

Assay [10] concerns PHK. The experiment in a line: Kinase profiling PHK.
Source text: as §1

In assay [11] the target is TTBK2 (Homo sapiens, UniProt Q6IQ55). The experiment in a line: Kinase profiling TTBK2. The settings on record: for remaining activity at 100 µM: read-out: residual kinase activity, TTBK2.
Source text: as §1

The mark [12] stands for this setting: 100 micromolar inhibitor concentration, 100 is no change.
The mark [13] stands for this setting: 100 micromolar inhibitor, 100 = no change.

Like-named read-outs stand apart in the source and are kept apart here.

Chain of PAK5 (Q9P286 whole entry): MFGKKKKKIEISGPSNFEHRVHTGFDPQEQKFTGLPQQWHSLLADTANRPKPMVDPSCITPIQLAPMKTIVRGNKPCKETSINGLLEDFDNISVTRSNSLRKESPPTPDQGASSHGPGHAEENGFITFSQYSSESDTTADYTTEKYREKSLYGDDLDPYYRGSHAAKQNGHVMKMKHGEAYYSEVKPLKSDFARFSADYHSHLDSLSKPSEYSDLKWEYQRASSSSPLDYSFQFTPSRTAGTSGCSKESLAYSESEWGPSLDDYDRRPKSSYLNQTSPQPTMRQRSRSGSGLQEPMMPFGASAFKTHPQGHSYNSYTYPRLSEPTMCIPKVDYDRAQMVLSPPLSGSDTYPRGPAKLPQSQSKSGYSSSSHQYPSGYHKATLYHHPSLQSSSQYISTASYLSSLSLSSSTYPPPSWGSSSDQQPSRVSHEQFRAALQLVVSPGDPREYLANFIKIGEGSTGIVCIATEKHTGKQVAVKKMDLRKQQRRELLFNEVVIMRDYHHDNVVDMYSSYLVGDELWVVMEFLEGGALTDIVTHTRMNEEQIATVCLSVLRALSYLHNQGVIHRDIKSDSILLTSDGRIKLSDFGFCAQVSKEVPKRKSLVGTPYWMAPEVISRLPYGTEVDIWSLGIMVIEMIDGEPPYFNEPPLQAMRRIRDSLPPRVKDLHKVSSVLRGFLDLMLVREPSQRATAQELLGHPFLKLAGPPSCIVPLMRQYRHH
Chain of TESK1 (Q15569 whole entry, species assumed): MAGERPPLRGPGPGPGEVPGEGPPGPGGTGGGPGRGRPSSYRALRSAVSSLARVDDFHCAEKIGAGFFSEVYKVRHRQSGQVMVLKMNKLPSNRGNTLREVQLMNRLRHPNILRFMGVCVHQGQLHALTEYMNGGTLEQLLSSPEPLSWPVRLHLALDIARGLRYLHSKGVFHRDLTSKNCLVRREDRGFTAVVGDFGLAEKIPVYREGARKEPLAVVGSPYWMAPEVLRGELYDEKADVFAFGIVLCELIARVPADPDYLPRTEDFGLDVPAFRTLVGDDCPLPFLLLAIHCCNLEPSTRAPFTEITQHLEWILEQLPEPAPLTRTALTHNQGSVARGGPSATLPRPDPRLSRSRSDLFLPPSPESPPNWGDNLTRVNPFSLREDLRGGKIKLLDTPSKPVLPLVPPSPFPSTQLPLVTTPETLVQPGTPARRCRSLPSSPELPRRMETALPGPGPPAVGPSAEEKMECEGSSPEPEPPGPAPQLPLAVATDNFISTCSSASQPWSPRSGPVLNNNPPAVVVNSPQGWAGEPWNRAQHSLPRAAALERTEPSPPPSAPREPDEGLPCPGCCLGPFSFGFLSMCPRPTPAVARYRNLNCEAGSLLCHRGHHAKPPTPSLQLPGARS
Chain of CK1γ2 (P78368 whole entry): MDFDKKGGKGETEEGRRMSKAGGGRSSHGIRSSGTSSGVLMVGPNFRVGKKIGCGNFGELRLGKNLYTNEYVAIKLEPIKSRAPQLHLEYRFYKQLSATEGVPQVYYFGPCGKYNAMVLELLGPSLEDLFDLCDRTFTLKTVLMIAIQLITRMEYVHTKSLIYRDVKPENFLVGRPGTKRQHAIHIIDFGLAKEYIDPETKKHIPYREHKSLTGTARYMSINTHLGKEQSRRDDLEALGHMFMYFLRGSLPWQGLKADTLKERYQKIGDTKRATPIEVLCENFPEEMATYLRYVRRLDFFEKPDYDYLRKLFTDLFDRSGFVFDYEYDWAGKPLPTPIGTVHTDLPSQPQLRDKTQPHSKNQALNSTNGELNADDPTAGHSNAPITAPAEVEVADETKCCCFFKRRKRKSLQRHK
Chain of MLK1 (P80192 whole entry, species assumed): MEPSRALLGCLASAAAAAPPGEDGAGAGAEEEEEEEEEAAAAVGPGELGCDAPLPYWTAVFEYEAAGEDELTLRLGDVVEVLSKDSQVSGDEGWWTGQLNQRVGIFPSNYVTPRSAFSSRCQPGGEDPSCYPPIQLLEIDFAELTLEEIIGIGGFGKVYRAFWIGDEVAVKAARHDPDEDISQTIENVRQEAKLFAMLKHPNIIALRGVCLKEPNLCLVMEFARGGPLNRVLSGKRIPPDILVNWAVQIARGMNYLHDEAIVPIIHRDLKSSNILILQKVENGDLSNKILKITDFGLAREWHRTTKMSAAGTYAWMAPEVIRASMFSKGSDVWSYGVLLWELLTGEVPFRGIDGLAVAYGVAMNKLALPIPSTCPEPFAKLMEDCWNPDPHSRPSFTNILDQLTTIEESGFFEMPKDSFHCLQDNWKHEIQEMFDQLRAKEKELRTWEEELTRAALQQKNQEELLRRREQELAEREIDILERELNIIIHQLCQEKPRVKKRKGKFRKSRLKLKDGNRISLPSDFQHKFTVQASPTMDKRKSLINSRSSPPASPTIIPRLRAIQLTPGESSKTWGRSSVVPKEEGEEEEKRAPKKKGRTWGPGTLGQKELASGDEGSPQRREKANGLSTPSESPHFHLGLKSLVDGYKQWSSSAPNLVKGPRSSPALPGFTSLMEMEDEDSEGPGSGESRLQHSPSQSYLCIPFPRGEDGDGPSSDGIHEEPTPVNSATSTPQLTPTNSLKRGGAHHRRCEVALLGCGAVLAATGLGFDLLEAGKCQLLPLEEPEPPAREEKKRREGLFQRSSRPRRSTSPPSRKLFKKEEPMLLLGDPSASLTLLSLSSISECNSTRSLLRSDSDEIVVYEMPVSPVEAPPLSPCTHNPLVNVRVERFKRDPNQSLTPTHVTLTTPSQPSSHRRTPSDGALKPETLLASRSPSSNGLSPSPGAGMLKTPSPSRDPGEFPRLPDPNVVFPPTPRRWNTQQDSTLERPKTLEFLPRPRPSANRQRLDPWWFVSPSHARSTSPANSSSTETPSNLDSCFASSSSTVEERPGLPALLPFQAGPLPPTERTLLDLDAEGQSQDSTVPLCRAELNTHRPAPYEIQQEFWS
Chain of HIPK1 (Q86Z02 whole entry, species assumed): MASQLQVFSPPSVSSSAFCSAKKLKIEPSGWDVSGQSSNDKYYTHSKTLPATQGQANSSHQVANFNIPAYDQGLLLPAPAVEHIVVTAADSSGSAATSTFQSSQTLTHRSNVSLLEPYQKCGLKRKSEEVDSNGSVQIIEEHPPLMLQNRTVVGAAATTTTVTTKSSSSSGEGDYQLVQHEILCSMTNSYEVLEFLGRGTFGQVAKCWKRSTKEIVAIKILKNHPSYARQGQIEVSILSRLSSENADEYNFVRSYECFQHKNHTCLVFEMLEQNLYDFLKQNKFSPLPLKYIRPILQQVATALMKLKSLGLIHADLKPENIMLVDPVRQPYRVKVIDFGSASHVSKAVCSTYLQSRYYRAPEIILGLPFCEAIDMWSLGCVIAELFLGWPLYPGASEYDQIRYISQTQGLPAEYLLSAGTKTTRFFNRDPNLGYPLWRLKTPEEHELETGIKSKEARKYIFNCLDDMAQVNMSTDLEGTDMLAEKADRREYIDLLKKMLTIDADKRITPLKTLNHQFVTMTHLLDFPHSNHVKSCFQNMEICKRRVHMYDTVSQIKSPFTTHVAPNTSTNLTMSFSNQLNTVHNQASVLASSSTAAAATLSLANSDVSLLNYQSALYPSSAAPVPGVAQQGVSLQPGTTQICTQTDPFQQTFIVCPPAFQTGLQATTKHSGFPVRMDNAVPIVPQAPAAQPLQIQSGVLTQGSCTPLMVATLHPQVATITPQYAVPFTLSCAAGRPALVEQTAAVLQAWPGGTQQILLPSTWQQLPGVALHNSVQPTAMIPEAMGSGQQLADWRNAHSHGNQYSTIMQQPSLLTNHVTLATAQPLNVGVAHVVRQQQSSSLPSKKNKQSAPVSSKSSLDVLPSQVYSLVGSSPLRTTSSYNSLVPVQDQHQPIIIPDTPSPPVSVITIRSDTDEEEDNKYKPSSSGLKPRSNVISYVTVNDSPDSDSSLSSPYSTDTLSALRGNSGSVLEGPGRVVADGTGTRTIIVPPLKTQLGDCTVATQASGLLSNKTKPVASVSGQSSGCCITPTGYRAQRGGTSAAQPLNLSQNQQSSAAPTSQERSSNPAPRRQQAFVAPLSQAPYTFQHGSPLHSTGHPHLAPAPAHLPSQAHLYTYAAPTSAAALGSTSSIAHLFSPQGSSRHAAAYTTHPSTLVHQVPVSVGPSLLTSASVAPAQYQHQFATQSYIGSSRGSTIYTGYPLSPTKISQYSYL

In the case of `CC(=O)Nc1nc2cc(O)ccc2s1` [Compound 01-66, N-(5-hydroxybenzo[d]thiazol-2-yl)acetamide], the “residual kinase activity, AMPK” value in assay [1] (setting [12]) worked out at 61. Besides, the remaining activity at 100 µM came to 6% in assay [2]; 32% in assay [3]; 97% in assay [4]; 72% in assay [5]; 85% in [6]; 93% in [7]. The remaining activity at 100 µM is 39% in [8] and 94% in assay [9]. Besides, the “residual kinase activity, PHK” value in assay [10] (setting [12]) is 49.

For `CC(=O)Nc1nc2ccc(O)cc2s1` [Compound 01-71], the “residual kinase activity, AMPK” value in assay [1] (setting [12]) is on record as 37. In addition, the remaining activity at 100 µM was found to be 10% in [2] (setting [12]); 19% in assay [3] (setting [12]); 76% in assay [4] (setting [12]); 85% in [5] (setting [12]); 75% in [6] (setting [12]); 86% in assay [7] (setting [12]). In addition, the remaining activity at 100 µM stood at 11% in [8] (setting [12]) and 61% in assay [9] (setting [12]). The “residual kinase activity, PHK” value in [10] (setting [12]) is 47.

Turning to `CC(=O)Nc1nc2ccc(C(F)(F)F)cc2s1` [Compound 01-90], the “residual kinase activity, AMPK” value in assay [1] (setting [12]) worked out at 90. The remaining activity at 100 µM in assay [2] (setting [12]) was 59%; in [3] (setting [12]) it was 15%; in assay [4] (setting [12]), 48%; in [11] (setting [12]), 98%; in assay [5] (setting [12]), 82%; in assay [6] (setting [12]), 78%. Also, the figures for the remaining activity at 100 µM in assay [7] (setting [12]), in assay [8] (setting [12]) and in assay [9] (setting [12]) were 91%, 39% and 93%, respectively. The “residual kinase activity, PHK” value in assay [10] (setting [12]) is 52.

On to `CC(=O)Nc1nc2ccc(C#N)cc2s1` [Compound 01-94], for which the “residual kinase activity, AMPK” value in [1] (setting [12]) was 73. Further, the remaining activity at 100 µM in assay [2] (setting [12]) is 18%; in assay [3] (setting [12]), 11%; in assay [4] (setting [12]), 37%; in [11] (setting [12]) it was 78%; in [5] (setting [12]) it was 70%; in assay [6] (setting [12]) it was 60%. In addition, the values for the remaining activity at 100 µM in assay [7] (setting [12]), in [8] (setting [12]) and in assay [9] (setting [12]) were 94%, 34% and 90%, respectively. Besides, the “residual kinase activity, PHK” value in [10] (setting [12]) is recorded as 63.

On to `CC(=O)Nc1cccc(NC(=O)c2nc3ccc(O)cc3s2)c1` [Compound 03-07, N-(3-acetamidophenyl)-6-hydroxybenzo[d]thiazole-2-carboxamide], for which the “residual kinase activity, AMPK” value in assay [1] (setting [13]) is 76. Besides, the remaining activity at 100 µM in [2] (setting [13]) came out at 77%; in assay [3] (setting [13]), 35%; in [4] (setting [13]), 90%; in assay [11] (setting [13]) it was 71%; in [5] (setting [13]), 82%; in [6] (setting [13]), 38%. In addition, the remaining activity at 100 µM stood at 104% in [7] (setting [13]), 26% in [8] (setting [13]) and 101% in [9] (setting [13]). Besides, the “residual kinase activity, PHK” value in [10] (setting [13]) stood at 55.

For the compound `O=C(Nc1nc2cc(O)ccc2s1)c1ccncc1` [Compound 03-11], in assay [1] (setting [12]), the “residual kinase activity, AMPK” value was 84. The “residual kinase activity, CK1γ2” value in assay [2] (setting [12]) turned out to be 81. Moreover, the “residual kinase activity, GCK” value in [3] (setting [12]) is 33. In addition, the “residual kinase activity, HIPK1” value in [4] (setting [12]) stood at 75. The “residual kinase activity, TTBK2” value in [11] (setting [12]) is listed as 99. Further, the “residual kinase activity, PAK5” value in assay [5] (setting [12]) is 92. In addition, the “residual kinase activity, NEK2a” value in [6] (setting [12]) turned out to be 93. The “residual kinase activity, EPH-B1” value in assay [7] (setting [12]) is 99. The “residual kinase activity, MLK1” value in assay [8] (setting [12]) amounted to 71. Further, the “residual kinase activity, TESK1” value in assay [9] (setting [12]) is given as 88. The “residual kinase activity, PHK” value in assay [10] (setting [12]) came out at 63.

As to `O=C(Nc1nc2ccc(O)cc2s1)c1ccccn1` [Compound 03-12], the “residual kinase activity, AMPK” value in assay [1] (setting [12]) was found to be 86. Moreover, the “residual kinase activity, CK1γ2” value in assay [2] (setting [12]) stood at 57. Moreover, the “residual kinase activity, GCK” value in assay [3] (setting [12]) was determined as 29. In addition, in assay [4] (setting [12]), the “residual kinase activity, HIPK1” value was 47. The “residual kinase activity, TTBK2” value in assay [11] (setting [12]) is reported as 102. In addition, the “residual kinase activity, PAK5” value in assay [5] (setting [12]) stood at 94. Moreover, the “residual kinase activity, NEK2a” value in assay [6] (setting [12]) amounted to 92. Further, in assay [7] (setting [12]), the “residual kinase activity, EPH-B1” value is 94. In [8] (setting [12]), the “residual kinase activity, MLK1” value is listed as 31. Further, the “residual kinase activity, TESK1” value in assay [9] (setting [12]) is reported as 84. In addition, in assay [10] (setting [12]), the “residual kinase activity, PHK” value is listed as 37.
